Reference: US4426453A, “Derivatives of iodothyronine compounds and their use in an assay for the free iodothyronine compounds” (Amersham International Limited, priority 1980, dated 1984)
Entries after “also recorded” stand apart in the source; their conditions may differ.

Key:
T4 antiserum = assay: Affinity with respect to T4 antiserum; assay type: binding
[1] = Stability in water / assay buffer; assay type: physicochemical; details: qualitative
TBPA (prealbumin) = target: T1, TBPA (prealbumin) (Homo sapiens, UniProt P02766); assay: T4.EDTA binding strength to prealbumin (TBPA) relative to T4 (displacement of 125I-T4 tracer from TBPA:anti-TBPA binding reagent)
T1 construct: from tissue; host or cells: normal serum
Experimental: (§1) Pre-precipitated antiserum (binding reagent) to either TBG or prealbumin is incubated with a serum source of TBG or prealbumin, so that the T4 binding protein is isolated on the binding reagent. Tracer ^125 I-T4 is added to the resulting complex and is thus purified. The displacement of the tracer ^125 I-T4, by varying concentrations of T4 and T4.EDTA, from the TBG or prealbumin, can then be studied. The results can be used to estimate the differences in binding affinity between T4 and T4.EDTA for the two T4 binding proteins.
This is prepared as for the anti-TBG binding reagent except that equal volumes of 30% donkey anti-rabbit second antibody and 4% TBPA antiserum solutions were mixed to give final concentrations of 15% donkey anti-rabbit, and 2% anti-TBPA.
600 μl normal serum and 20 ml anti-TBPA binding reagent are mixed for 1 hour at room temperature. […]
(§2) Thus the percentage bound of the tracer at different T4 and T4.EDTA concentrations, can be determined in the two systems.
(§3) Tracer percentage bound is plotted against T4 and T4.EDTA concentrations, and from these curves an estimate of the non-specific binding can be made. The data can then be re-calculated, using this blank correction, plotted, and the T4 and T4.EDTA concentrations corresponding to a range of tracer percentage bound values can be read off the curve. […]

TBG [2] = target: T2, TBG (Homo sapiens, UniProt P05543); assay: T4.EDTA binding strength to TBG relative to T4 (displacement of 125I-T4 tracer from TBG:anti-TBG binding reagent); parameters: 1 ml of resin stripped human serum; from tissue; host or cells: human serum (resin stripped); details: for binding to TBG (in words): qualitative
T2 sequence (P05543 21-415): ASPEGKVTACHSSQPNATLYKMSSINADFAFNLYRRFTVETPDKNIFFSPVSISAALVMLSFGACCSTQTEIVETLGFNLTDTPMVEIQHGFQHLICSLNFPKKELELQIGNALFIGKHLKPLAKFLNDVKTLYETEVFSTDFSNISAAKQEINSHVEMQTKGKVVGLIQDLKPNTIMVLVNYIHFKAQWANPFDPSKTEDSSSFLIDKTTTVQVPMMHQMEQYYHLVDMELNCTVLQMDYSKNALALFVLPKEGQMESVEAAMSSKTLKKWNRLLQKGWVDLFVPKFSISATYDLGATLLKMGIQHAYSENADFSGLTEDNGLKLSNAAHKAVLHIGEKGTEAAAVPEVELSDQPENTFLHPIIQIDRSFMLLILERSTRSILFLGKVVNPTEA
Experimental: as §1
15% Donkey anti-sheep in phosphate
2% TBG Antiserum buffer + 0.05% BSA
Equal quantities of the above solutions are mixed and rotated overnight at 4° so that the final concentrations in the binding reagent are 7.5% donkey anti-sheep, and 1% TBG antiserum. Centrifugation at 900 rpm, decantation and resuspension in fresh buffer are carried out twice to wash the reagent.
1 ml of resin stripped human serum and 20 ml of the above binding reagents are mixed for 1 hour at room temperature. Centrifugation, decantation and resuspension in fresh buffer (phosphate+0.05% BSA) are carried out twice.
Typically 10 ml of TBG:anti-TBG binding reagents, 28 ml of phosphate buffer+0.05% BSA, and 2 ml of ^125 I-T4 tracer solution (0.1 μCi high specific activity T4 per ml in phosphate buffer+0.05% BSA) are mixed for 1 hour at room temperature. Centrifugation, decantation and resuspension in fresh buffer (phosphate+0.05% BSA) are carried out twice. Once prepared the tracer T4:TBG:anti-TBG binding reagent is used immediately.
The stock solutions are diluted in phosphate buffer+0.005% BSA. […]
as §2, §3

Albumin = details: blood stream of human beings; cited from earlier work
TBPA = details: blood stream of human beings; cited from earlier work
TBG [3] = target: T2, TBG; details: blood stream of human beings; cited from earlier work
[4] = tested on: Antisera (having low T4 cross reactivity); assay: Binding to antisera having low T4 cross reactivity; details: antisera with low T4 cross reactivity; compared with T3
[5] = tested on: solid phase T4 antibody (T4-specific antiserum on latex particles); assay: Free-T4 assay using T4.EDTA tracer: standard curve; assay type: binding; details: 37° C., one hour
Source text: T4.EDTA was labelled with ^125 I by an exchange reaction using sodium iodide-^125 I and chloramine-T. The specific activity obtained was typically 500 millicuries per milligram, and was used as a working concentration of 0.13 microcuries per […] in a 60 millimolar phosphate buffer, pH 7.4, containing 0.9% sodium chloride, 0.9% bovine serum albumin and 0.1% sodium azide.
A solid phase antibody was used consisting of T4-specific antiserum bound on to micron sized latex particles such that the suspension contained 0.66 milligram of latex particles per milliliter and antibodies from 0.5 microliters of T4-specific antiserum per milligram of latex. The buffer was 10 millimolar phosphate, pH 7.4 containing 0.1% sodium azide.
A set of 6 human serum pools were prepared by standard techniques to contain free-T4 concentrations ranging from zero to approximately 10 nanograms per deciliter. These standards were calibrated with reference to an equilibrium dialysis free T4 assay.
The free T4 assay was set up in polystyrene assay tubes following this protocol:
100 μl serum standard or unknown serum sample
500 μl ^125 I-T4.EDTA tracer solution.
500 μl solid phase T4 antibody suspension.
The assay tubes were vortex mixed, and incubated at 37° C. in a water bath for one hour. The tubes were centrifuged at 1500 g for 20 minutes and the supernatant liquid decanted. The readioactivity of the precipitate was measured.

[6] = % of the affinity constant of T4, 37° C.

SMILES: O=C(O)CN(CCN(CC(=O)O)CC(=O)NC(Cc1cc(I)c(Oc2cc(I)c(O)c(I)c2)c(I)c1)C(=O)O)CC(=O)O (stereo not shown) [T4.EDTA, 1-{3',5'-di-iodo-4'(3",5"-di-iodo-4"-Hydroxyphenoxy)phenyl}2-carboxy-6,9-dicarboxymethyl-4-oxo-3,6,9-triazaundecan-11-oic acid]
- affinity constant with respect to T4 antiserum relative to that of T4 (T4 antiserum; % of that of T4): 90.4%
- binding to T4 antiserum (in words) (T4 antiserum; relative to T4): binds almost as strongly to T4 antiserum as does T4 itself
- stability in water / usable time after dilution into the assay buffer [1]: stable in water
- affinity constant for TBPA relative to that of T4 (TBPA (prealbumin); [6]): 2.7%
- binding to TBPA (in words) (TBPA (prealbumin); qualitative): binds only very weakly to TBG and TBPA
- affinity constant for TBG relative to that of T4 (TBG [2]; [6]): 3.5%
- binding to TBG (in words) (TBG [2]): binds only very weakly to TBG; also recorded: shows no significant tendency to bind to TBG

SMILES: N[C@@H](Cc1cc(I)c(Oc2cc(I)c(O)c(I)c2)c(I)c1)C(=O)O [T4, Thyroxine]
- percentage of T4 bound to Albumin (Albumin): 5-10%
- percentage of T4 bound to TBPA (TBPA): 20-25%
- percentage of T4 bound to TBG (TBG [3]): approximately 70%

SMILES: O=C(O)CN(CCN(CC(=O)O)CC(=O)NC(Cc1cc(I)c(Oc2ccc(O)c(I)c2)c(I)c1)C(=O)O)CC(=O)O (stereo not shown) [T3.EDTA, 2-carboxy-6,9-dicarboxymethyl-1 3',5'di-iodo-4'(3"-iodo-4"-hydroxy)phenoxy phenyl 4-oxo-3,6,9-triazaundecan-11-oic acid]
- binding to antisera relative to T3 [4]: equal, or better, binding than T3 itself

SMILES: O=C(O)CN(CCN(CC(=O)O)CC(=O)NC(Cc1cc(I)c(Oc2cc(I)c(O)c(I)c2)c(I)c1)C(=O)O)CC(=O)O (stereo not shown) [^125 I-T4.EDTA]
- % radioactivity in solid phase ([5]; free T4 0 ng/dl): 61.8%
- % radioactivity in solid phase ([5]; free T4 0.45 ng/dl): 41.2%
- % radioactivity in solid phase ([5]; free T4 0.95 ng/dl): 30.8%
- % radioactivity in solid phase ([5]; free T4 1.9 ng/dl): 21.1%
- % radioactivity in solid phase ([5]; free T4 4.9 ng/dl): 12.4%
- % radioactivity in solid phase ([5]; free T4 9.0 ng/dl): 9.3%

SMILES: COC(=O)[C@H](Cc1cc(I)c(Oc2cc(I)c(O)c(I)c2)c(I)c1)NC(C)=O [N-Acetyl-thyroxine-methyl ester, N-acetyl-thyroxine-methyl ester, reference compound]
- stability in water / usable time after dilution into the assay buffer [1]: only gives useful assay results within hours of dilution into the assay buffer
- binding to TBG (in words) (TBG [2]): binds appreciably to TBG
